Laboratory results published in patent US11498929B2, “Chromenopyrimidine derivatives as phosphatidylinsitol phosphate kinase inhibitors” (Hibercell, Inc., priority 2019, dated 2022).

Assays:
PIP4K2A = molecular target: T1, PIP4K2A (Homo sapiens, UniProt P48426); assay: Kinase Assay - PIP4K2 A (inhibition of PIP4K2 A kinase assay); type: biochemical; details: compounds listed under IC50 bin headings
T1 construct: GST; made in house; host or cells: E. coli
T1 sequence (P48426 1-406): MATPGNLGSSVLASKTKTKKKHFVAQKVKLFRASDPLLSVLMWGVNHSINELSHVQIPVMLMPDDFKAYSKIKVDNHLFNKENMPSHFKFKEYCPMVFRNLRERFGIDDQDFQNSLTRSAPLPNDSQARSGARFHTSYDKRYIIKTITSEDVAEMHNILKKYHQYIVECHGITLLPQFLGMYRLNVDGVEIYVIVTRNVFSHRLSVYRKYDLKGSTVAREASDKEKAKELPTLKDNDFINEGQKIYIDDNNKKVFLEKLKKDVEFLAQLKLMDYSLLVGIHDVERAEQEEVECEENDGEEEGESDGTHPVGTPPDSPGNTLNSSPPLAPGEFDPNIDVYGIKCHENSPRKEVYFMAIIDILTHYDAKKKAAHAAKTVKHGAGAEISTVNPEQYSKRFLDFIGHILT
Description: Dilution series of the compounds were prepared in DMSO at 100 times the final assay concentration (n1=n0/3 in 10 points). The compounds were further diluted to three times the assay concentration in assay buffer (20 mM MOPS pH 7.2, 25 mM magnesium chloride, 0.005% Tween 20). 6 μL of the diluted compounds were added to a 384 well assay plate followed by 9 μL of a mix consisting of 4 nM PIP4K2A (full length protein, SignalChem) and 100 μM PI(5)P diC8 (Tebu-Bio). Enzyme and compounds were pre-incubated at room temperature for 15 minutes.
Then 3 μL of a solution containing 60 μM ATP (Promega) in assay buffer was added to the wells containing compound and enzyme and mixing was performed by pipetting several times. The reaction was incubated at room temperature for 1 h. Then 18 μL of ADP-Glo™ Reagent (Promega) was added to stop the kinase reaction and deplete the unconsumed ATP, mixing was performed by pipetting several times. The plate was incubated at room temperature for 40 minutes before addition of 36 μL of Kinase Detection Reagent (Promega) to convert ADP to ATP and introduce luciferase and luciferin to detect ATP. The reaction was incubated at room temperature for 40 minutes before the luminescence was measured in a in a Victor 3V 1420 multilabel counter (Perkin Elmer).
Percent inhibition of the compounds as compared to dimethyl sulfoxide treated control samples was calculated. Compound concentration versus percent inhibition were fitted to generate IC50 values. […]

[1] = molecular target: T2, PIP4K2 B (GST-tagged PIP4KtypeIIB) (Homo sapiens, UniProt P78356); assay: Kinase Assay - PIP4K2 B (inhibition of PIP4K2 B kinase assay); type: biochemical; details: compounds listed under IC50 bin headings
T2 construct: GST; made in house; host or cells: E. coli
T2 sequence (P78356 1-416): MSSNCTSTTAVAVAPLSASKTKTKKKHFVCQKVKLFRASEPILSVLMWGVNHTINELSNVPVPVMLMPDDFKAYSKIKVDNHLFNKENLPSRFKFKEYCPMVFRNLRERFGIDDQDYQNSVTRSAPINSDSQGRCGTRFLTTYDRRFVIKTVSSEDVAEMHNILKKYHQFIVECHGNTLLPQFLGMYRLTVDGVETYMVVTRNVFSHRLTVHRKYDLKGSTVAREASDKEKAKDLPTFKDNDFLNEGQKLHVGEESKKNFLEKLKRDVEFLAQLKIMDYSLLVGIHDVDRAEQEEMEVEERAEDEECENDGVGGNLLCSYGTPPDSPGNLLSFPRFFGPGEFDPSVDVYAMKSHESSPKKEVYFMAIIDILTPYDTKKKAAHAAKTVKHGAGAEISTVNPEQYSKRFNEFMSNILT
Text: GST tagged PIP4KtypeIIA and B enzymes were overexpressed in E. Coli and purified to >80% homogeneity. Phosphatidyl inositol-5-phosphate (PI5P, Cat. #850152, Avanti Polar Lipids Inc.) was used as the lipid substrate and phosphatidyl ethanolamine (DOPE 18:1, Cat. #850725, Avanti Polar Lipids Inc.) was used as the carrier lipid for assays. Ultrapure ATP and GTP was purchased from Bellbrooke Labs. ADP Glo reagents were obtained from Promega. Transcreener FI reagent was obtained from Bellbrooke labs.
GST-tagged PIP4KtypeIIB (3.4 uL, 2.77 mg/mL) was diluted to 5 mL using HNE buffer to yield 5× enzyme stock (25 nM)
Lipid Preparation: In a 10 mL pyrex glass vial, 1 ug of PI5P and 1 ug of DOPE were suspended in 2.5 mL of HEPES buffer mix and 2.5 mL of H:E buffer. The contents were mixed and sonicated for 3 min to yield a translucent lipid stock.
Compound Preparation: Compounds were stored as 5 mM stocks in neat DMSO as room temperature in glass vials. 5 mM stocks were diluted to 2 mM and then serially diluted (3×) in neat DMSO in 96 well polypropylene plates. From the serially diluted stocks, 3 uL was delivered into 250 uL of 25% DMSO (in water) to generate 5× compound stocks. Typically, the highest compound conc. was 24 uM.
The assay volume was kept at 25 uL. To each well of the reaction plate, 10 uL of lipid stock (1:1 ratio PI5P:DOPE) was delivered. This was followed by the addition of 5 uL of compound in 25% DMSO. Then, to each well, 5 uL of 25 nM (5×) typeIIB enzyme was delivered. The contents were mixed well and incubated for 1 h at 27 C. After 1 h, reaction was initiated by adding 5 uL of 500 uM GTP and the contents were mixed well with a multi-channel pipetteman. The final concentration of the reagents are as follows: 50 mM HEPES, pH 7.3, 10 mM MgCl2, 20 mM NaCl, 0.01% v/v triton-X100, 5% DMSO, 100 uM GTP, 80 uM (2 ug) PI5P, 2 ug DOPE, and 5 nM PIP4KIIB Typically, the highest conc. of compounds was 4.8 uM and the lowest conc. was 0.
After 2 h, the reaction was quenched by adding 25 uL of transcreener FI reagent. The contents were incubated at RT for 1 h and the Fluorescence (Ex:584 Em: 623) was read using Molecular Devices Paradigm plate reader. […] The blanks were averaged and subtracted from all other wells. Using a calibration curve, RFU was converted to uM GDP (product). IC50 was calculated by plotting the residual activity (expressed as % No inhibitor control) vs. log [Inh. conc.]

MOLM-16 = MOLM-16 EC50 assay; type: cell-based; details: MOLM16

SMILES	IC50 (PIP4K2A) [nM]	IC50 [1] [nM]	EC50 (MOLM-16) [nM]
CN1CCOc2ncc(Nc3ncc4c(n3)C(C)(C)Oc3cc(N5C(=O)CCC56CC6)ccc3-4)cc21 [Compound 26, 4-[5,5-dimethyl-3-({1-methyl-1H,2H,3H-pyrido[2,3-b][1,4]oxazin-7-yl}amino)-5H-chromeno[3,4-d]pyrimidin-8-yl]-4-azaspiro[2.4]heptan-5-one]	1 to 10	1 to 10	100 to 1000
CC(=O)OC(C)(C)C(=O)N1CCOc2ncc(Nc3ncc4c(n3)C(C)(C)Oc3cc(-c5nocc5C)ccc3-4)cc21 [Compound 29, 1-(7-{[5,5-dimethyl-8-(4-methyl-1,2-oxazol-3-yl)-5H-chromeno[3,4-d]pyrimidin-3-yl]amino}-1H,2H,3H-pyrido[2,3-b][1,4]oxazin-1-yl)-2-methyl-1-oxopropan-2-yl acetate]	1 to 10	10 to 100	> 1000
CC1(C)Oc2cc(N3CCCC3=O)ccc2-c2cnc(Nc3cncc(CNCCS(C)(=O)=O)c3)nc21 [Compound 31, 1-{3-[(5-{[(2-methanesulfonylethyl)amino]methyl}pyridin-3-yl)amino]-5,5-dimethyl-5H-chromeno[3,4-d]pyrimidin-8-yl}pyrrolidin-2-one]	10 to 100	10 to 100	10 to 100
CCN(CC)CCN(C)c1cncc(Nc2ncc3c(n2)C(C)(C)Oc2cc(N4CCCC4=O)ccc2-3)c1 [Compound 32, 1-{3-[(5-{[2-(diethylamino)ethyl](methyl)amino}pyridin-3-yl)amino]-5,5-dimethyl-5H-chromeno[3,4-d]pyrimidin-8-yl}pyrrolidin-2-one]	10 to 100	100 to 1000	10 to 100
CN(C)CCOc1cncc(Nc2ncc3c(n2)C(C)(C)Oc2cc(N4CCCC4=O)ccc2-3)c1 [Compound 33, 1-[3-({5-[2-(dimethylamino)ethoxy]pyridin-3-yl}amino)-5,5-dimethyl-5H-chromeno[3,4-d]pyrimidin-8-yl]pyrrolidin-2-one]	10 to 100	100 to 1000	10 to 100
CN1CCN(CC(=O)N(C)c2cncc(Nc3ncc4c(n3)C(C)(C)Oc3cc(N5CCCC5=O)ccc3-4)c2)CC1 [Compound 35, N-(5-{[5,5-dimethyl-8-(2-oxopyrrolidin-1-yl)-5H-chromeno[3,4-d]pyrimidin-3-yl]amino}pyridin-3-yl)-N-methyl-2-(4-methylpiperazin-1-yl)acetamide]	100 to 1000	> 1000	100 to 1000
CCN(CC)CCN1CCOc2ncc(Nc3ncc4c(n3)C(C)(C)Oc3cc(N5CCCC5=O)ccc3-4)cc21 [Compound 36, 1-[3-({1-[2-(diethylamino)ethyl]-1H,2H,3H-pyrido[2,3-b][1,4]oxazin-7-yl}amino)-5,5-dimethyl-5H-chromeno[3,4-d]pyrimidin-8-yl]pyrrolidin-2-one]	100 to 1000	> 1000	10 to 100
